PubChem BioAssay (NCI)
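Cells were grown in 96-well plates and exposed to each compound for 48 hours at five concentrations; endpoints were interpolated linearly between bracketing concentrations, or set to the highest concentration if not reached. TGI marks complete inhibition of growth.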

What was measured:
Assay in all cases: NCI tumour cell line growth inhibition, 48 h
MOLT-4 leukemia = tested on: MOLT-4 leukemia
UO-31 renal = tested on: UO-31 renal
BT-549 breast = tested on: BT-549 breast
MDA-N = tested on: MDA-N
LOX IMVI melanoma = tested on: LOX IMVI melanoma
DU-145 prostate = tested on: DU-145 prostate
SF-295 CNS = tested on: SF-295 CNS
NCI-H23 lung = tested on: NCI-H23 lung
CAKI-1 renal = tested on: CAKI-1 renal
MALME-3M melanoma = tested on: MALME-3M melanoma

Row | SMILES | TGI (MOLT-4 leukemia) | TGI (UO-31 renal) | TGI (BT-549 breast) | TGI (MDA-N) | TGI (LOX IMVI melanoma) | TGI (DU-145 prostate) | TGI (SF-295 CNS) | TGI (NCI-H23 lung) | TGI (CAKI-1 renal) | TGI (MALME-3M melanoma)
1 | COc1ccc2cc3c4cc5c(cc4cc[n+]3cc2c1OC)OCO5 | > 100 µM | > 100 µM | 7.83 µM | 28.5 µM | > 100 µM | > 100 µM | > 93 µM | 65.1 µM | > 100 µM | 15.1 µM
2 | CC(=O)N/N=C1\NC(=O)C[C@H]2[C@@H]3CC=C4C[C@@H](OC(C)=O)CC[C@]4(C)[C@H]3CC[C@]12C | > 100 µM | > 100 µM | 32.7 µM | > 100 µM | > 100 µM | > 100 µM | 45.1 µM | > 100 µM | > 100 µM | > 100 µM
3 | CC(C)/C(Cl)=N\OC(=O)Nc1ccc(C#N)cc1 | 5.41 µM | 21.2 µM | 26.6 µM | 17.3 µM | 13.2 µM | 32.2 µM | 33.2 µM | 30 µM | 10.3 µM | 6.81 µM
4 | CSc1c(C#N)c(N)n2c1C(=O)N(c1ccccc1)C2=S | > 100 µM | > 100 µM | > 100 µM | > 100 µM | > 100 µM | > 100 µM | > 100 µM | > 100 µM | > 100 µM | > 100 µM
5 | CCN(CC)CCOc1ccc(N2C(=O)c3cc(OC)c(OC)cc3C2=O)cc1 | > 100 µM |  | > 100 µM | > 100 µM | > 100 µM | > 100 µM | > 100 µM | > 100 µM | > 100 µM | > 100 µM
6 | N#CC(C#N)=CNC(=S)c1ccncc1 | > 100 µM | 52.8 µM | 80.3 µM | > 100 µM | > 100 µM | > 100 µM | > 100 µM | > 100 µM | > 100 µM | > 100 µM
7 | Nc1c(-c2cccc3ccccc23)c2ccc([N+](=O)[O-])cc2c(=O)n1-c1nc2ccccc2s1 | > 27.5 µM | > 100 µM | > 100 µM | > 31.6 µM | > 35.5 µM | > 100 µM | > 34.2 µM | > 100 µM | > 31.6 µM | 13.4 µM
8 | CCCn1c(CN(Cc2nc3ccccc3n2CCC)Cc2nc3ccccc3n2CCC)nc2ccccc21 | 40.8 µM | 34.3 µM | > 58.4 µM | 25.1 µM | 18.9 µM | > 88.5 µM | 30.7 µM | > 49.6 µM | > 29 µM | 23.3 µM
9 | O=C(CCCN1CCC2(CC1)CC(=O)N(N1CCOCC1)C2=O)c1ccccc1 | > 100 µM | > 100 µM | 27.9 µM | > 100 µM | > 100 µM | > 100 µM | > 100 µM | > 100 µM | > 100 µM | > 100 µM
10 | COc1ccc2nc3cc(Cl)ccc3c(NCCCNCCCNc3c4ccc(Cl)cc4nc4ccc(OC)cc34)c2c1 | > 100 µM | 0.989 µM | 1.67 µM | 0.173 µM | 0.0145 µM | 0.156 µM | 0.183 µM | 0.144 µM |  | 1.22 µM
11 | CCOC(=N)n1c(=O)n(C2=NCCN2)c2ccccc21 | > 100 µM | > 100 µM | > 100 µM | > 100 µM | > 100 µM | > 100 µM | > 100 µM | > 100 µM | > 100 µM | > 100 µM
12 | CCOc1cc(C2CC(c3ccc(NS(=O)(=O)c4cc([N+](=O)[O-])ccc4C)cc3)=NN2C(=O)c2ccccc2)ccc1O (stereo not given) | > 100 µM | > 100 µM | 93.3 µM | 70.6 µM | > 100 µM | > 100 µM | 87.7 µM | 69 µM | > 100 µM | 61.4 µM
13 | CC(C)COP(=O)(OCC(C)C)C(NS(=O)(=O)c1ccccc1)(C(F)(F)F)C(F)(F)F | 14.9 µM | 7.4 µM | 19.6 µM | 20.6 µM | 13.6 µM | 29.8 µM | 37 µM | 14.2 µM | 18.6 µM | 32.4 µM
14 | C/C(CC1C2CCCC1C2)=N\NC(N)=O (stereo not given) | > 100 µM | > 100 µM | > 100 µM | > 100 µM | > 100 µM | > 100 µM | > 100 µM | > 100 µM | > 100 µM | > 100 µM
15 | O=c1c2cc3c(cc2[nH]c2ncccc12)OCO3 | > 10 µM |  | > 10 µM | > 10 µM | > 10 µM | > 10 µM | > 10 µM | > 10 µM | > 10 µM | > 10 µM
16 | COC(=O)[C@]12CC[C@H]3CN(C(=O)OCc4ccccc4)[C@H]([C@H]31)[C@H](c1ccco1)N2S(=O)(=O)c1ccc(C)cc1 | > 100 µM | 46.6 µM | 35.6 µM | 50.4 µM | 32.3 µM | > 100 µM | 81.9 µM | 48.5 µM | 89.4 µM | 38.3 µM

Row | SMILES | TGI (MOLT-4 leukemia) | TGI (UO-31 renal) | TGI (BT-549 breast) | TGI (MDA-N) | TGI (LOX IMVI melanoma) | TGI (DU-145 prostate) | TGI (SF-295 CNS) | TGI (NCI-H23 lung) | TGI (CAKI-1 renal) | TGI (MALME-3M melanoma)
17 | COc1cc(C2CC(C)(Nc3ccccc3)Oc3cc4c(cc32)OCO4)cc(OC)c1OC (stereo not given) | > 31.6 µM | 34.2 µM | > 100 µM | 0.183 µM | > 100 µM | 6.13 µM | 3.57 µM | > 33.6 µM | > 71.8 µM | > 100 µM
18 | CCN(C(=S)N[C@@H](Cc1ccccc1)C(=O)N[C@@H](CC(C)C)C(=O)OC)c1ccccc1 | 81.2 µM | > 100 µM | > 100 µM | > 100 µM | > 100 µM | > 100 µM | > 100 µM | > 100 µM | > 100 µM | > 100 µM
19 | C(=N\NC1=NCCCN1)/c1ccc2ccccc2c1 | 5.02 µM | 23.8 µM | 32.5 µM | 22.5 µM | 21 µM | 24.2 µM | 24.7 µM | 36.6 µM |  | 33.2 µM
20 | NNC(=O)c1ccc[n+](CCc2ccccc2)c1 | > 100 µM | > 100 µM | > 100 µM | > 100 µM | > 100 µM | > 100 µM | > 100 µM | > 100 µM | > 100 µM | > 100 µM
21 | CC1CC[C@@]2(OC1)OC1C[C@H]3[C@@H]4CC[C@H]5CC(OC6OC(CO)C(OC7OC(CO)C(O)C(O)C7OC7OC(CO)C(O)C(O)C7O)C(O)C6O)CCC5(C)[C@H]4CCC3(C)C1[C@@H]2C (stereo not given in full) | 3.54 µM | 1.94 µM | 3.62 µM | 9.31 µM | 5.85 µM | 1.81 µM | 11 µM | 10.7 µM | 10.6 µM | 12.5 µM
22 | c1ccc2sc(SCSc3nc4ccccc4s3)nc2c1 | > 100 µM | > 100 µM | > 100 µM | > 100 µM | > 100 µM | > 100 µM | > 100 µM | > 100 µM | > 100 µM | > 100 µM
23 | Cc1c(S(=O)(=O)/N=C(\N)Nc2ccc(Cl)cc2)sc2ccc(Cl)cc12 | 78.1 µM | 35.9 µM | 58 µM | 47.1 µM | 36.3 µM | 36.2 µM | 46.7 µM | 41.5 µM |  | 39.8 µM
24 | COc1nc(C#CCC(C)O)nc(OC)n1 (stereo not given) | > 100 µM | 37.8 µM | 36 µM | > 100 µM | 40.6 µM | 52.8 µM | > 100 µM | 43.4 µM | 31.9 µM | 25.6 µM
25 | O=P(c1ccccc1)(c1ccccc1)N1O[C@@H](c2ccccc2)C=C[C@H]1c1ccccc1 | 27.5 µM | 17.3 µM | 32.4 µM | 12.7 µM | 24.1 µM | 26.3 µM | 28.7 µM | 25.2 µM | 22.4 µM | 29.2 µM
26 | CCN(CCO)CC1COc2ccccc2O1 (stereo not given) | > 100 µM | > 100 µM | > 100 µM | > 100 µM | > 100 µM | > 100 µM | > 100 µM | > 100 µM | > 100 µM | > 100 µM
27 | C=CCn1c(=O)ccn(COCCO)c1=O | > 100 µM | > 100 µM | > 100 µM | > 100 µM | > 100 µM | > 100 µM |  | > 100 µM | > 100 µM | > 100 µM
28 | N#C/C(=C\c1cc(Br)c(O)c(Br)c1)c1cccnc1 | > 100 µM | 58.1 µM | 56.9 µM | > 100 µM |  | > 100 µM | 46.7 µM | 52.8 µM | > 100 µM | 41.6 µM
29 | O=C(NCCCN(CCCCN(CCCNC(=O)C(F)(F)F)Cc1ccccc1)Cc1ccccc1)C(F)(F)F | 39.9 µM | 17.4 µM | 28.1 µM | 29.1 µM | 21.3 µM | 56.2 µM | 30 µM | 30.9 µM | 26.4 µM | 28.4 µM
30 | C/C=C/C=C/c1nc(C#N)c(N)o1 | > 100 µM | > 100 µM | > 100 µM | > 100 µM | > 100 µM | > 100 µM | > 100 µM | > 100 µM | > 100 µM | > 100 µM
31 | O=C1C[C@H](Sc2ccccc2)C2(OCCO2)[C@@H](Sc2ccccc2)C1 |  | 3.49 µM | 5.41 µM | 6.83 µM | 2.17 µM | 14.1 µM | 17.9 µM | 6.08 µM | 12.8 µM | 7.81 µM
32 | N#CCCN(CCC#N)c1ccc(/C=C2\N=C(c3ccccc3)N(c3ccc(Cl)cc3)C2=O)cc1 | > 100 µM | > 100 µM | > 100 µM | > 100 µM | > 100 µM | > 100 µM | > 100 µM |  |  | > 100 µM
